Experimental data taken from US20030229451A1, “Methods and systems for analyzing complex biological systems” (priority 2001, published 2003).

Columns and labels:
Arabidopsis thaliana [1] = assay: MOA1 gene expression profiling (22,000 gene array); conditions: for Regulated Genes: Down / Regulated Genes: Up: 1 hr, p < 0.5; for No. of Lethal Genes Altered: genes essential for plant growth and development
Arabidopsis thaliana [2] = assay: MOA1 biochemical (metabolite) profiling by LC-MS and GC-MS
[3] = tested on: Arabidopsis thaliana plants; assay: SOA1 phenotypic analysis of herbicide-treated Arabidopsis (MIC, Tmic, leaf traits); format: in vivo; conditions: for characteristic morphological symptoms: herbicide-treated Arabidopsis; for leafCurling Dev. / leafTwisting Dev. / leafWidth Dev. / matureLeafAnthocyanins Dev. / matureLeafChlorosis Dev. / matureLeafNecrosis Dev. / newLeafAnthocyanins Dev. / newLeafChlorosis Dev. / newLeafNecrosis Dev. / pointedLeaves Dev.: numeric value standardized to mock treated; for tMic Dev.: time to full range of symptoms at MIC, coded
Magnaporthe grisea = format: cell-based
[4] = tested on: Saccharomyces cerevisiae wild type strain BY4743; assay: AF1 metabolite analysis (GC-MS, LC-MS) of yeast cells treated with antifungal drugs; format: cell-based; conditions: P < 0.1; 2x MIC, two hours
[5] = tested on: Saccharomyces cerevisiae wild type strain BY4743; assay: AF1 combined gene expression and metabolite mapping to reactions and pathways (KEGG); format: cell-based
Description: The pathway score indicates how meaningful the mapping is, or how likely it is to be correctly indicative of the pathway involved in the perturbation under examination. The method provides a pathway score based on perturbation levels of genes and/or compounds and the information content of each gene and/or compound in the pathway, i.e., a pathway score indicates the extent to which other pathways are mapped to a gene/compound. For example, imagine that two genes are perturbed in a particular experiment. One gene maps to only one pathway, giving a high degree of probability that the perturbed pathway is the one identified in the mapping. The second gene maps to three pathways. In the later example, there is only one-third the probability that the pathway identified in the mapping is the one perturbed. The present invention provides a method for calculating the pathway scores, so that more weight is given to a score of a gene or compound that maps to only one pathway than to a score of a gene or compound that maps to multiple pathways. […] Where n=the total number of genes in the pathway; ipath—count=the number of pathways containing a gene; and j=the number of genes in the pathway that are perturbed. Another factor to be considered when weighting a pathway score is the degree of perturbation. Degree of perturbation can be calculated, for example, based on a number of standard deviations from a norm, and included in an equation such as the one shown above, so that not only the number of pathways is taken into account, but also accounts for the amount of gene transcript or compound present as compared to a control. The data were then combined to determine the number of reactions showing an enzyme and at least one compound perturbed, and to determine the number of pathways having at least one enzyme and one perturbed compound perturbed. The results of the analysis are represented in Tables 16 and 17, and were difficult to interpret, illustrating that the ability to draw conclusions from compound mapping to pathways is limited when absent additional data.

[6] = tested on: N-starved Arabidopsis plants; conditions: nitrate addition to N-starved plants; cited from earlier work
[7] = concentrations insufficient to inhibit growth

SMILES: COC(=O)NS(=O)(=O)c1ccc(N)cc1 [Asulam]
- Regulated Genes: Down (Arabidopsis thaliana [1]): 7
- Regulated Genes: Up (Arabidopsis thaliana [1]): 80
- No. of Lethal Genes Altered (Arabidopsis thaliana [1]): 5
- Number of Metabolites Changed: (unknown #) (Arabidopsis thaliana [2]; 20 min, p < 0.05): 3
- Number of Metabolites Changed: Total # (Arabidopsis thaliana [2]; 20 min, p < 0.05): 9
- Number of Metabolites Changed: (unknown #) (Arabidopsis thaliana [2]; 20 min, p < 0.11): 5
- Number of Metabolites Changed: Total # (Arabidopsis thaliana [2]; 20 min, p < 0.11): 14
- Number of Metabolites Changed: (unknown #) (Arabidopsis thaliana [2]; 1 hr, p < 0.05): 7
- Number of Metabolites Changed: Total # (Arabidopsis thaliana [2]; 1 hr, p < 0.05): 10
- Number of Metabolites Changed: (unknown #) (Arabidopsis thaliana [2]; 1 hr, p < 0.11): 11
- Number of Metabolites Changed: Total # (Arabidopsis thaliana [2]; 1 hr, p < 0.11): 18

SMILES: COc1nc(C)nc(NC(=O)NS(=O)(=O)c2ccccc2Cl)n1 [Chlorsulfuron]
- characteristic morphological symptoms [3]: anthocyanin accumulation in the older leaves accompanied by chlorosis of the newly emerging leaves
- leafCurling Dev. [3]: 1
- leafTwisting Dev. [3]: 1
- leafWidth Dev. [3]: −1
- matureLeafAnthocyanins Dev. [3]: 3
- matureLeafChlorosis Dev. [3]: 2
- matureLeafNecrosis Dev. [3]: 0
- newLeafAnthocyanins Dev. [3]: 0
- newLeafChlorosis Dev. [3]: 2
- newLeafNecrosis Dev. [3]: 0
- pointedLeaves Dev. [3]: 0
- tMic Dev. [3]: 2
- Regulated Genes: Down (Arabidopsis thaliana [1]): 109
- Regulated Genes: Up (Arabidopsis thaliana [1]): 97
- No. of Lethal Genes Altered (Arabidopsis thaliana [1]): 8
- Number of Metabolites Changed: (unknown #) (Arabidopsis thaliana [2]; 20 min, p < 0.05): 4
- Number of Metabolites Changed: Total # (Arabidopsis thaliana [2]; 20 min, p < 0.05): 9
- Number of Metabolites Changed: (unknown #) (Arabidopsis thaliana [2]; 20 min, p < 0.11): 6
- Number of Metabolites Changed: Total # (Arabidopsis thaliana [2]; 20 min, p < 0.11): 15
- Number of Metabolites Changed: (unknown #) (Arabidopsis thaliana [2]; 1 hr, p < 0.05): 3
- Number of Metabolites Changed: Total # (Arabidopsis thaliana [2]; 1 hr, p < 0.05): 5
- Number of Metabolites Changed: (unknown #) (Arabidopsis thaliana [2]; 1 hr, p < 0.11): 13
- Number of Metabolites Changed: Total # (Arabidopsis thaliana [2]; 1 hr, p < 0.11): 23

SMILES: O=C(O)CNCP(=O)(O)O [Glyphosate]
- characteristic morphological symptoms [3]: anthocyanin accumulation in the older leaves accompanied by chlorosis of the newly emerging leaves
- leafCurling Dev. [3]: 0
- leafTwisting Dev. [3]: 0
- leafWidth Dev. [3]: 0
- matureLeafAnthocyanins Dev. [3]: 3
- matureLeafChlorosis Dev. [3]: 1
- matureLeafNecrosis Dev. [3]: 3
- newLeafAnthocyanins Dev. [3]: 1
- newLeafChlorosis Dev. [3]: 2
- newLeafNecrosis Dev. [3]: 0
- pointedLeaves Dev. [3]: 1
- tMic Dev. [3]: 2
- growth results for Tiers 3 and 4 compared to Unknown 4 (Magnaporthe grisea; 250 μg/ml): nearly identical
- growth inhibition of M. grisea (Magnaporthe grisea; 1.0 mg/ml): remediated by inclusion of aromatic amino acids
- Number of Metabolites Changed: (unknown #) (Arabidopsis thaliana [2]; 20 min, p < 0.05): 2
- Number of Metabolites Changed: Total # (Arabidopsis thaliana [2]; 20 min, p < 0.05): 4
- Number of Metabolites Changed: (unknown #) (Arabidopsis thaliana [2]; 20 min, p < 0.11): 9
- Number of Metabolites Changed: Total # (Arabidopsis thaliana [2]; 20 min, p < 0.11): 13
- Number of Metabolites Changed: (unknown #) (Arabidopsis thaliana [2]; 1 hr, p < 0.05): 9
- Number of Metabolites Changed: Total # (Arabidopsis thaliana [2]; 1 hr, p < 0.05): 16
- Number of Metabolites Changed: (unknown #) (Arabidopsis thaliana [2]; 1 hr, p < 0.11): 24
- Number of Metabolites Changed: Total # (Arabidopsis thaliana [2]; 1 hr, p < 0.11): 46
- tyrosine level (Arabidopsis thaliana [2]; relative to the control): decreased

SMILES: CS(=O)(=O)c1cc(C(F)(F)F)ccc1C(=O)c1cnoc1C1CC1 [Isoxaflutole]
- growth of M. grisea in minimal media (Magnaporthe grisea; [7]): unaffected
- growth of M. grisea in minimal plus tyrosine media (Magnaporthe grisea; [7]): inhibited
- Regulated Genes: Down (Arabidopsis thaliana [1]): 370
- Regulated Genes: Up (Arabidopsis thaliana [1]): 143
- No. of Lethal Genes Altered (Arabidopsis thaliana [1]): 15
- Number of Metabolites Changed: (unknown #) (Arabidopsis thaliana [2]; 20 min, p < 0.05): 29
- Number of Metabolites Changed: Total # (Arabidopsis thaliana [2]; 20 min, p < 0.05): 45
- Number of Metabolites Changed: (unknown #) (Arabidopsis thaliana [2]; 20 min, p < 0.11): 39
- Number of Metabolites Changed: Total # (Arabidopsis thaliana [2]; 20 min, p < 0.11): 62
- Number of Metabolites Changed: (unknown #) (Arabidopsis thaliana [2]; 1 hr, p < 0.05): 13
- Number of Metabolites Changed: Total # (Arabidopsis thaliana [2]; 1 hr, p < 0.05): 14
- Number of Metabolites Changed: (unknown #) (Arabidopsis thaliana [2]; 1 hr, p < 0.11): 21
- Number of Metabolites Changed: Total # (Arabidopsis thaliana [2]; 1 hr, p < 0.11): 25
- phenylalanine level (Arabidopsis thaliana [2]; relative to the control): up-regulated
- tyrosine level (Arabidopsis thaliana [2]; relative to the control): up-regulated
- Alpha-tocopherol level (Arabidopsis thaliana [2]; relative to the control, early time points): not significantly changed

SMILES: CC(=O)N1CCN(c2ccc(OCC3COC(Cn4ccnc4)(c4ccc(Cl)cc4Cl)O3)cc2)CC1 (stereo not drawn) [Ketoconazole]
- # Compounds perturbed [4]: 15
- # Reactions Having an Enzyme and at Least One Compound Perturbed [5]: 21
- Number Of Pathways Having at Least One Enzyme and One Compound Perturbed (# Reactions) [5]: 24

SMILES: CCc1cccc(C)c1N(C(=O)CCl)C(C)COC (stereo not drawn) [Metolachlor]
- leafCurling Dev. [3]: 2
- leafTwisting Dev. [3]: 1
- leafWidth Dev. [3]: −1
- matureLeafAnthocyanins Dev. [3]: 0
- matureLeafChlorosis Dev. [3]: 0
- matureLeafNecrosis Dev. [3]: 3
- newLeafAnthocyanins Dev. [3]: 0
- newLeafChlorosis Dev. [3]: 0
- newLeafNecrosis Dev. [3]: 3
- pointedLeaves Dev. [3]: 1
- tMic Dev. [3]: 2
- Number of Metabolites Changed: (unknown #) (Arabidopsis thaliana [2]; 20 min, p < 0.05): 25
- Number of Metabolites Changed: Total # (Arabidopsis thaliana [2]; 20 min, p < 0.05): 38
- Number of Metabolites Changed: (unknown #) (Arabidopsis thaliana [2]; 20 min, p < 0.11): 34
- Number of Metabolites Changed: Total # (Arabidopsis thaliana [2]; 20 min, p < 0.11): 54
- Number of Metabolites Changed: (unknown #) (Arabidopsis thaliana [2]; 1 hr, p < 0.05): 11
- Number of Metabolites Changed: Total # (Arabidopsis thaliana [2]; 1 hr, p < 0.05): 18
- Number of Metabolites Changed: (unknown #) (Arabidopsis thaliana [2]; 1 hr, p < 0.11): 22
- Number of Metabolites Changed: Total # (Arabidopsis thaliana [2]; 1 hr, p < 0.11): 45

SMILES: O=C(O)c1ccccc1C(=O)Nc1cccc2ccccc12 [Naptalam]
- Regulated Genes: Down (Arabidopsis thaliana [1]): 47
- Regulated Genes: Up (Arabidopsis thaliana [1]): 50
- No. of Lethal Genes Altered (Arabidopsis thaliana [1]): 3
- Number of Metabolites Changed: (unknown #) (Arabidopsis thaliana [2]; 20 min, p < 0.05): 11
- Number of Metabolites Changed: Total # (Arabidopsis thaliana [2]; 20 min, p < 0.05): 28
- Number of Metabolites Changed: (unknown #) (Arabidopsis thaliana [2]; 20 min, p < 0.11): 16
- Number of Metabolites Changed: Total # (Arabidopsis thaliana [2]; 20 min, p < 0.11): 39
- Number of Metabolites Changed: (unknown #) (Arabidopsis thaliana [2]; 1 hr, p < 0.05): 9
- Number of Metabolites Changed: Total # (Arabidopsis thaliana [2]; 1 hr, p < 0.05): 13
- Number of Metabolites Changed: (unknown #) (Arabidopsis thaliana [2]; 1 hr, p < 0.11): 23
- Number of Metabolites Changed: Total # (Arabidopsis thaliana [2]; 1 hr, p < 0.11): 46

SMILES: O=[N+]([O-])O [Nitrate]
- Nitrate Regulation of Glutamate synthetase [6]: ↑
- Nitrate Regulation of Glutamine synthetase (2) [6]: ↑
- Nitrate Regulation of MADs Box (2) [6]: ↓
- Nitrate Regulation of MYB transcription factor [6]: ↑
- Nitrate Regulation of Malate Dehydrogenase [6]: ↑
- Nitrate Regulation of Nitrate transporter [6]: ↑
- Nitrate Regulation of Phosphate transporter [6]: ↑
- Nitrate Regulation of Transaldolase [6]: ↑
- Nitrate Regulation of Transketolase [6]: ↑

SMILES: C[n+]1ccc(-c2cc[n+](C)cc2)cc1 [Paraquat]
- characteristic morphological symptoms [3]: rapid and widespread leaf necrosis
- leafCurling Dev. [3]: 2
- leafTwisting Dev. [3]: 0
- leafWidth Dev. [3]: −1
- matureLeafAnthocyanins Dev. [3]: 0
- matureLeafChlorosis Dev. [3]: 1
- matureLeafNecrosis Dev. [3]: 4
- newLeafAnthocyanins Dev. [3]: 0
- newLeafChlorosis Dev. [3]: 1
- newLeafNecrosis Dev. [3]: 4
- pointedLeaves Dev. [3]: 1
- tMic Dev. [3]: 2
- Number of Metabolites Changed: (unknown #) (Arabidopsis thaliana [2]; 20 min, p < 0.05): 5
- Number of Metabolites Changed: Total # (Arabidopsis thaliana [2]; 20 min, p < 0.05): 9
- Number of Metabolites Changed: (unknown #) (Arabidopsis thaliana [2]; 20 min, p < 0.11): 9
- Number of Metabolites Changed: Total # (Arabidopsis thaliana [2]; 20 min, p < 0.11): 14
- Number of Metabolites Changed: (unknown #) (Arabidopsis thaliana [2]; 1 hr, p < 0.05): 15
- Number of Metabolites Changed: Total # (Arabidopsis thaliana [2]; 1 hr, p < 0.05): 22
- Number of Metabolites Changed: (unknown #) (Arabidopsis thaliana [2]; 1 hr, p < 0.11): 31
- Number of Metabolites Changed: Total # (Arabidopsis thaliana [2]; 1 hr, p < 0.11): 50
